Legend:
[1] = Solubility and pH of salts; settings: dimethyl sulfoxide, organic solvent or mixture
[2] = test system: guinea pig bronchioles constricted by carbachol; test: Bronchodilator Test Method II, in vitro perfused guinea pig lung
Protocol: In this method bronchodilator activity in vitro was determined by testing the effect of graded doses of the test compounds on guinea pig bronchioles constricted by carbachol, using the technique reported by Sollman and von Oettingen, Proc. Soc, Exp. Biol. Med., 25,692 (1928) as modified by Tainter, Pedden, and James, J. Pharm. Exp. Ther., 51, 371 (1934) and by Luduena, von Euler, Tullar, and Lands, Arch. intern. Pharmacol., III, 392 (1957).

[3] = test system: carbachol- or histamine-induced bronchoconstriction; test: Bronchodilator Test Method I, anesthetized dog, intravenous activity; format: in vivo; settings: Canis lupus familiaris, read-out: Bronchodilatation; for inhibition in vivo at 0.07 mg/kg: 70 mcg/kg i.v.; for inhibition in vivo at 0.14 mg/kg: 140 mcg/kg i.v.; for inhibition in vivo at 0.28 mg/kg: 280 mcg/kg i.v.
Method in brief: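 Pentobarbital-anesthetized (30 mg/kg i.v.), open-chest, artificially ventilated dogs were given i.v. carbachol (4-6 µg/kg) or histamine diphosphate (35-45 µg/kg). Test compound was given i.v. mixed with, after, or 1-10 min before the constrictor.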

[4] = test system: diastolic blood pressure; test: Effect on diastolic blood pressure in the anesthetized dog; format: in vivo
Protocol: The effect of a rapid intravenous injection on the heart rate the heart rate was conducted in anesthetized dogs under normal respiration. A few open-chest dogs were also tested. Increase in heart rate was measured by using an electrocardiograph attached to the dog. Readings were taken every 0.5-1 minute for the first 10 minutes and every 2-5 minutes thereafter until recovery. In some cases, several doses and more than one compound were tested alternately in the same dog. The blood pressure effect was simultaneously recorded.

[5] = test system: carbachol- or histamine-induced bronchoconstriction; test: Bronchodilator Test Method I, anesthetized dog, intraduodenal activity; format: in vivo; settings: Canis lupus familiaris, read-out: Bronchodilation; for inhibition in vivo at 0.07 mg/kg: 70 mcg/kg (salt) intraduodenal; for inhibition in vivo at 0.14 mg/kg: 140 mcg/kg (salt) intraduodenal; for inhibition in vivo at 0.28 mg/kg: 280 mcg/kg (salt) intraduodenal
Method in brief: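 Pentobarbital-anesthetized (30 mg/kg i.v.) open-chest dogs of 9-18 kg, artificially ventilated; airway pressure recorded via tracheal cannula transducer. Test solution injected intraduodenally; from 5 min, i.v. carbachol (4-6 μg/kg) or histamine diphosphate (35-45 μg/kg) challenges every 30-60 min gauged degree and duration of bronchodilation.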

[6] = test system: heart rate; test: Cardiovascular studies: effect on the heart rate in the anesthetized dog; format: in vivo
Method in brief: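 Anesthetized dogs, mostly spontaneously breathing, some open-chest, given rapid intravenous injections. Heart rate by electrocardiograph with blood pressure recorded simultaneously, every 0.5-1 minute for 10 minutes then every 2-5 minutes until recovery; several doses or compounds sometimes tested alternately in one dog.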

- solubility [1]: ≥ 10000 µg/mL
Structure (SMILES): Cc1ccc(C(=O)Oc2ccc(C(O)CNC(C)(C)C)cc2OC(=O)c2ccc(C)cc2)cc1 (stereo not drawn) [Example 30, 3,4-bis(p-toluyloxy)-alpha-(tert-butylaminomethyl)benzyl alcohol methanesulfonate]
- ED50 ([2]; carbachol (Doryl) 1:5 million): 3.2 µg (base)
- Duration, Mean ([2]; dose 10 mcg (base)): 60 ± 9.6 min
- inhibition in vivo at 0.07 mg/kg ([3]; 5 min, 5 min): 54%
- inhibition in vivo at 0.14 mg/kg ([3]; 5 min, 5 min): 65%
- inhibition in vivo at 0.28 mg/kg ([3]; 5 min, 5 min): 83%
- inhibition in vivo at 0.07 mg/kg ([3]; 0.5 h, 30 min): 63%
- inhibition in vivo at 0.14 mg/kg ([3]; 0.5 h, 30 min): 76%
- inhibition in vivo at 0.28 mg/kg ([3]; 0.5 h, 30 min): 88%
- inhibition in vivo at 0.07 mg/kg ([3]; 1 h, 60 min): 61%
- inhibition in vivo at 0.14 mg/kg ([3]; 1 h, 60 min): 69%
- inhibition in vivo at 0.28 mg/kg ([3]; 1 h, 60 min): 75%
- inhibition in vivo at 0.07 mg/kg ([3]; 2 h, 120 min): 52%
- inhibition in vivo at 0.14 mg/kg ([3]; 2 h, 120 min): 55%
- inhibition in vivo at 0.28 mg/kg ([3]; 2 h, 120 min): 72%
- inhibition in vivo at 0.14 mg/kg ([3]; 3 h, 180 min): 62%
- inhibition in vivo at 0.28 mg/kg ([3]; 3 h, 180 min): 64%
- inhibition in vivo at 0.07 mg/kg ([3]; 4 h, 240 min): 37%
- inhibition in vivo at 0.28 mg/kg ([3]; 4 h, 240 min): 50%
- inhibition in vivo at 0.14 mg/kg ([3]; 4.5 h, 270 min): 42%
- Mean Decrease in Diastolic Blood Pressure ([4]; 70 meg/kg (salt) i.v.): 2%
- Mean Decrease in Diastolic Blood Pressure ([4]; 140 meg/kg (salt) i.v.): 11%
- Mean Decrease in Diastolic Blood Pressure ([4]; 280 meg/kg (salt) i.v.): 11.5%
- inhibition in vivo at 0.07 mg/kg ([5]; 10 min, 10 min, mean of 3 dogs): 38%
- inhibition in vivo at 0.14 mg/kg ([5]; 10 min, 10 min): 30%
- inhibition in vivo at 0.28 mg/kg ([5]; 10 min, 10 min): 75%
- inhibition in vivo at 0.07 mg/kg ([5]; 0.5 h, 30 min): 45%
- inhibition in vivo at 0.14 mg/kg ([5]; 0.5 h, 30 min): 35%
- inhibition in vivo at 0.28 mg/kg ([5]; 0.5 h, 30 min): 71%
- inhibition in vivo at 0.07 mg/kg ([5]; 1 h, 60 min): 42%
- inhibition in vivo at 0.14 mg/kg ([5]; 1 h, 60 min): 36%
- inhibition in vivo at 0.28 mg/kg ([5]; 1 h, 60 min, mean of 3 dogs): 64%
- inhibition in vivo at 0.07 mg/kg ([5]; 2 h, 120 min, mean of 3 dogs): 42%
- inhibition in vivo at 0.14 mg/kg ([5]; 2 h, 120 min): 45%
- inhibition in vivo at 0.28 mg/kg ([5]; 2 h, 120 min): 56%
- inhibition in vivo at 0.07 mg/kg ([5]; 3 h, 180 min): 42%
- inhibition in vivo at 0.14 mg/kg ([5]; 3 h, 180 min): 40%
- inhibition in vivo at 0.28 mg/kg ([5]; 3 h, 180 min): 50%
- inhibition in vivo at 0.07 mg/kg ([5]; 4 h, 240 min, mean of 3 dogs): 25%
- inhibition in vivo at 0.14 mg/kg ([5]; 4 h, 240 min): 47%
- inhibition in vivo at 0.28 mg/kg ([5]; 4 h, 240 min, mean of 3 dogs): 45%
- inhibition in vivo at 0.28 mg/kg ([5]; 5 h, 300 min, mean of 3 dogs): 37%
- Mean Maximal Increase in the Heart Rate ([6]; 70 mcg/kg (salt) i.v.): 9%
- Mean Maximal Increase in the Heart Rate ([6]; 140 mcg/kg (salt) i.v.): 15%
- Mean Maximal Increase in the Heart Rate ([6]; 280 mcg/kg (salt) i.v.): 28%
